Results: the supplement of paper PMC10307832

Tests used:
Assay in all cases: relative viability (nuclei count vs DMSO), 5 days (fraction); higher = more cells survive
[1] = tested on: NCI-H1755
In short: (§1)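 After 5 days of treatment, lung cancer cells in 1536-well plates were fixed and stained in a single step (final 0.05% Triton X-100, 1% formaldehyde, 1 ug/ml Hoechst) and their nuclei counted on 4× images. Treatment had been applied by pin tool the day after seeding as one drug alone or as a fixed anchor-drug dose with five library-drug doses (not always all listed) in √10 steps. Relative viability is the nuclei count of treated wells divided by that of vehicle wells, and values are medians of duplicate plates.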

[2] = tested on: SK-LU-1
In short: as §1

[3] = tested on: PC-14
In short: as §1

[4] = tested on: H3255
In short: as §1

[5] = tested on: HCC-15
In short: as §1

[6] = tested on: NCI-H1437
In short: as §1

[7] = tested on: NCI-H1915
In short: as §1

[8] = tested on: NCI-H2405
In short: as §1

[9] = tested on: NCI-H2023
In short: as §1

[10] = tested on: NCI-H460
In short: as §1

[11] = tested on: UMC-11
In short: as §1

SMILES: O=C(O)CCCCC(CCSCc1ccccc1)SCc1ccccc1 (centres undefined) [CPI-613] + CCNC(=O)c1noc(-c2cc(C(C)C)c(O)cc2O)c1-c1ccc(CN2CCOCC2)cc1 [Luminespib] (partner 0.01 µM)
- relative viability ([1]; first compound 5 µM): 0.613
- relative viability ([1]; first compound 15.81 µM): 0.508
- relative viability ([1]; first compound 50 µM): 0.24
- relative viability ([1]; first compound 158.11 µM): 0.34
- relative viability ([1]; first compound 500 µM): 0.185
- relative viability ([2]; first compound 5 µM): 0.205
- relative viability ([2]; first compound 15.81 µM): 0.2
- relative viability ([2]; first compound 50 µM): 0.198
- relative viability ([2]; first compound 158.11 µM): 0.128
- relative viability ([2]; first compound 500 µM): 0.101
- relative viability ([3]; first compound 5 µM): 0.158
- relative viability ([3]; first compound 15.81 µM): 0.185
- relative viability ([3]; first compound 50 µM): 0.167
- relative viability ([3]; first compound 158.11 µM): 0.129
- relative viability ([3]; first compound 500 µM): 0.0407
- relative viability ([4]; first compound 5 µM): 0.822
- relative viability ([4]; first compound 15.81 µM): 0.802
- relative viability ([4]; first compound 50 µM): 0.879
- relative viability ([4]; first compound 500 µM): 0.878
- relative viability ([5]; first compound 5 µM): 0.297
- relative viability ([5]; first compound 15.81 µM): 0.424
- relative viability ([5]; first compound 50 µM): 0.304
- relative viability ([5]; first compound 158.11 µM): 0.0775
- relative viability ([5]; first compound 500 µM): 0.0498
- relative viability ([6]; first compound 5 µM): 1.09
- relative viability ([6]; first compound 15.81 µM): 1.04
- relative viability ([6]; first compound 50 µM): 1.07
- relative viability ([6]; first compound 158.11 µM): 0.53
- relative viability ([6]; first compound 500 µM): 0.0571
- relative viability ([7]; first compound 5 µM): 0.746
- relative viability ([7]; first compound 15.81 µM): 0.841
- relative viability ([7]; first compound 50 µM): 0.675
- relative viability ([7]; first compound 158.11 µM): 0.161
- relative viability ([7]; first compound 500 µM): 0.0405
- relative viability ([8]; first compound 5 µM): 0.657
- relative viability ([8]; first compound 15.81 µM): 0.711
- relative viability ([8]; first compound 50 µM): 0.622
- relative viability ([8]; first compound 158.11 µM): 0.736
- relative viability ([8]; first compound 500 µM): 0.727
- relative viability ([9]; first compound 5 µM): 0.791
- relative viability ([9]; first compound 15.81 µM): 0.692
- relative viability ([9]; first compound 50 µM): 0.736
- relative viability ([9]; first compound 158.11 µM): 0.052
- relative viability ([9]; first compound 500 µM): 0.0128
- relative viability ([10]; first compound 5 µM): 0.0325
- relative viability ([10]; first compound 15.81 µM): 0.0279
- relative viability ([10]; first compound 50 µM): 0.0372
- relative viability ([10]; first compound 158.11 µM): 0.0145
- relative viability ([10]; first compound 500 µM): 0.0162
- relative viability ([11]; first compound 5 µM): 0.977
- relative viability ([11]; first compound 15.81 µM): 1.02
- relative viability ([11]; first compound 50 µM): 0.955
- relative viability ([11]; first compound 158.11 µM): 0.148
- relative viability ([11]; first compound 500 µM): 0.112
